Measurements reported in patent US20240408216A1, “PROTEIN INHIBITOR OR DEGRADING AGENT, PHARMACEUTICAL COMPOSITION CONTAINING SAME AND PHARMACEUTICAL USE” (JING MEDICINE TECHNOLOGY (SHANGHAI) LTD., priority 2021, published 2024).

What was measured:
[1] = test system: BaF3 (EGFR L858R/T790M/C797S); assay: Cell proliferation IC50 assay (Cell Titer GLO), BaF3 LTC cells; type: cell-based; settings: Mus musculus, Ba/F3 EGFR, Table 6, 72 h
Protocol: (§1) IC50 of compounds in the present invention was determined by Cell Titer GLO reagent from Promega. The procedures are as follows:
(§2) Tumor cells were cultured in specified medium in an incubator at 37° C. and 5% CO2. The cells were passaged periodically. Cells at the logarithmic growth phase were collected for plating at a density of 2000-4000 cells/well. The next day, the compounds of the present invention were serially diluted and added to the cells, with DMSO being the negative control and the culture media without cells being the blank control. The plate was incubated in the incubator for 72 h. The cell viability assay was performed by adding the detection reagents to the cell culture media according to Cell Titer GLO reagent instructions and detecting luminescent signals on an EnVision microplate reader (PerkinElmer).
(§3) Inhibition of cell growth by the compounds of the present invention was plotted by Prism Graphpad software for statistically calculating the IC50 of the compound of the present invention.

A431 = assay: Cell proliferation IC50 assay (Cell Titer GLO), A431 cells; type: cell-based; settings: Homo sapiens, A-431; Table 6; A431, 72 h; read-out: A431 IC50
Protocol: as §1, §2, §3

BaF3 (EGFR WT) = assay: Cell proliferation IC50 assay (Cell Titer GLO), BaF3 WT cells; type: cell-based; settings: Mus musculus, Ba/F3 EGFR, Table 6, 10 ng/ml EGF, 72 h
Protocol: as §1, §2, §3

BaF3 (EGFR Del19/C797S) = target: T1, BaF3 (EGFR Del19/C797S) (Homo sapiens, UniProt P00533, C797S, cells depend on it, form not given); assay: Cell proliferation IC50 assay (Cell Titer GLO), BaF3 DC cells; type: cell-based, mouse; settings: Table 6, 72 h
T1 construct: BaF3 (EGFR Del19/C797S)|DC|RPMI1640 + 10% FBS
Protocol: as §1, §2, §3

[2] = test system: BaF3 (EGFR Del19/T790M/C797S); assay: Cell proliferation IC50 assay (Cell Titer GLO), BaF3 DTC cells; type: cell-based; settings: Mus musculus, Ba/F3 EGFR-Del19/T790M/C797S, Table 6, 72 h
Protocol: as §1, §2, §3

T1 sequence (P00533 with tags, fused parts or gaps DEL746-750/C797S, form open): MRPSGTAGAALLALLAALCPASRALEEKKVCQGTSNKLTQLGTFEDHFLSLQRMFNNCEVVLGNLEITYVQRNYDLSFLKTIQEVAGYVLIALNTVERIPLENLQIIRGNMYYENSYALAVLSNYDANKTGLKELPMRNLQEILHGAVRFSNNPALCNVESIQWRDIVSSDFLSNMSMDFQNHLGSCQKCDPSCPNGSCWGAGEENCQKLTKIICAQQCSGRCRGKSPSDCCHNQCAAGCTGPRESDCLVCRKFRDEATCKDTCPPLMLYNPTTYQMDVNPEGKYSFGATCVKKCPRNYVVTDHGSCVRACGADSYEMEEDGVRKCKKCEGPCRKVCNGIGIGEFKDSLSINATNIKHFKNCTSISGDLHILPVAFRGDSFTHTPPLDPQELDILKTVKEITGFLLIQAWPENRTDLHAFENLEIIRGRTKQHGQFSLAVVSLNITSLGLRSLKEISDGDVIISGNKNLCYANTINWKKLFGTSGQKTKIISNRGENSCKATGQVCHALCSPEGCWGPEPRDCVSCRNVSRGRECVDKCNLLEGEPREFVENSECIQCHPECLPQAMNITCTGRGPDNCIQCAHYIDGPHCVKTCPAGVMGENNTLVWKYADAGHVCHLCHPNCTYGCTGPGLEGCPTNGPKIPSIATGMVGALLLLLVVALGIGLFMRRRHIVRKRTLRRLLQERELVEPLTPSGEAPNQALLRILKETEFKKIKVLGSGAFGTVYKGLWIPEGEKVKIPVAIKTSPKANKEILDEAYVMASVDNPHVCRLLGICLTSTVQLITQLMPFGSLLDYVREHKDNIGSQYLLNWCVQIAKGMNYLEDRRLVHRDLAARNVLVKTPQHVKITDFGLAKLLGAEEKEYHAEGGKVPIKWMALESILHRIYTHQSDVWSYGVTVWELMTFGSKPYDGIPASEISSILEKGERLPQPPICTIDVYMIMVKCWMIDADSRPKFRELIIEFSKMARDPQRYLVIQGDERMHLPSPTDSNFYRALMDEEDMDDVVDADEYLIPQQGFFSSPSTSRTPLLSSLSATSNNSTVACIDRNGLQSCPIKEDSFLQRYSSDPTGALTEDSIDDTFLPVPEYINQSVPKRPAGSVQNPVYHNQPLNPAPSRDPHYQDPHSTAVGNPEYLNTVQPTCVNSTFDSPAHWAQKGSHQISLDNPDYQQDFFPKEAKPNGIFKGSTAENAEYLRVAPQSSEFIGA

Structure (SMILES)	IC50 [1] [nM]	IC50 (A431) [nM]	IC50 (BaF3 (EGFR WT)) [nM]	IC50 (BaF3 (EGFR Del19/C797S)) [nM]	IC50 [2] [nM]
CCc1cc(Nc2ncc(Cl)c(Nc3ccc(F)cc3P(C)(C)=O)n2)c(OC)cc1N1CCC(N2CCN(CCOc3cccc4c3CN(C3CCC(=O)NC3=O)C4=O)CC2)CC1 (centres unmarked) [Example E124]	106	1270	3970	106	6.8
CCc1cc(Nc2ncc(-c3cn[nH]c3)c(Nc3ccccc3P(C)(C)=O)n2)c(OC)cc1N1CCC(N2CCN(CCOc3cccc4c3CN(C3CCC(=O)NC3=O)C4=O)CC2)CC1 (centres unmarked) [Example E167]	3050	1100	975	1.5	37.8
COc1cc2c(cc1Nc1ncc(Cl)c(Nc3ccccc3P(C)(C)=O)n1)CCN(C1CCN(CCCCOc3cccc4c3CN(C3CCC(=O)NC3=O)C4=O)CC1)C2 (centres unmarked) [Example E86]	197	1670	212	33	40.7
CCc1cc(Nc2ncc(Cl)c(Nc3ccccc3P(C)(C)=O)n2)c(OC)cc1N1CCC(N2CCN(CCCCCc3ccc4c(N5CCC(=O)NC5=O)nn(C)c4c3)CC2)CC1 [Example E65]	267	1060	1730	15.8	35.3
COc1cc(N2CCC(N3CCN(CCCCOc4cccc5c4CN(C4CCC(=O)NC4=O)C5=O)CC3)CC2)c(-c2cnn(C)c2)cc1Nc1ncc(Cl)c(Nc2ccccc2P(C)(C)=O)n1 (centres unmarked) [Example E146]	55.8	908	188	5.6	15.7
CCc1cc(Nc2ncc(Cl)c(Nc3ccccc3P(C)(C)=O)n2)c(OC)cc1N1CCC(N2CCN([C@H]3C[C@H](Oc4cc5c(cc4F)C(=O)N(C4CCC(=O)NC4=O)C5)C3)CC2)CC1 (some centres unmarked) [Example E205]	51.7	1050	> 4000	9.9	6.87
CCc1cc(Nc2ncc(Cl)c(Nc3ccccc3P(C)(C)=O)n2)cc(Cl)c1N1CCC(N2CCN(CCC#Cc3cccc4c3CN(C3CCC(=O)NC3=O)C4=O)CC2)CC1 (centres unmarked) [Example E77]	44.6	651	67.6	13.5	16.3
CCc1cc(Nc2ncc(Cl)c(Nc3ccccc3P(C)(C)=O)n2)c(OC)cc1N1CCC(N2CCN(CCOCCc3cccc4c3CN(C3CCC(=O)NC3=O)C4=O)CC2)CC1 (centres unmarked) [Example E109]	83.3	1140	> 4000	6.5	10.5
COCc1cc(Nc2ncc(Cl)c(Nc3ccccc3P(C)(C)=O)n2)c(OC)cc1N1CCC(N2CCN(CCCCOc3cccc4c3CN(C3CCC(=O)NC3=O)C4=O)CC2)CC1 (centres unmarked) [Example E125]	104	> 4000	> 4000	18.4	20.3
COc1cc(N2CCC(N3CCN(CCOc4cccc5c4CN(C4CCC(=O)NC4=O)C5=O)CC3)CC2)c(C(C)=O)cc1Nc1ncc(Cl)c(Nc2ccccc2P(C)(C)=O)n1 (centres unmarked) [Example E185]	144	1830	1650	20.3	18.8
COc1cc(N2CCC(N3CCN(CCC#Cc4cccc5c4CN(C4CCC(=O)NC4=O)C5=O)CC3)CC2)c(CC#N)cc1Nc1ncc(Cl)c(Nc2ccccc2P(C)(C)=O)n1 (centres unmarked) [Example E180]	22.6	1100	888	2.4	5.35
COc1cc(N2CCC(N3CCN(CCCCOc4cccc5c4CN(C4CCC(=O)NC4=O)C5=O)CC3)CC2)c(C2CC2)cc1Nc1ncc(Cl)c(Nc2ccccc2P(C)(C)=O)n1 (centres unmarked) [Example E35]	25.7	1640	2500	8.9	5.59
CCc1cc(Nc2ncc(Cl)c(Nc3ccccc3P(C)(C)=O)n2)c(OC)cc1N1CCC(N2CCN(C(=O)CCC#Cc3cccc4c3CN(C3CCC(=O)NC3=O)C4=O)CC2)CC1 (centres unmarked) [Example E50]	58.1	1350	1260	12.6	21.9
CCc1cc(Nc2ncc(Cl)c(Nc3ccccc3P(C)(C)=O)n2)c(OC)cc1N1CCC(N2CCN([C@H]3C[C@H](Oc4cccc5c4CN(C4CCC(=O)NC4=O)C5=O)C3)CC2)CC1 (some centres unmarked) [Example E160]	14.3	2410	1290	0.8	2.89
CCc1cc(Nc2ncc(-n3cccn3)c(Nc3ccccc3P(C)(C)=O)n2)c(OC)cc1N1CCC(N2CCN(CCOc3cccc4c3CN(C3CCC(=O)NC3=O)C4=O)CC2)CC1 (centres unmarked) [Example E165]	> 4000	> 4000	> 4000	4.2	780
CCc1cc(Nc2ncc(Cl)c(Nc3ccccc3P(C)(C)=O)n2)c(OC)cc1N1CCC(N2CCN(CCCCCc3ccc4c(c3)CN(C3CCC(=O)NC3=O)C4=O)CC2)CC1 (centres unmarked) [Example E38]	16.5	1020	461	3.4	6.23
CCc1cc(Nc2ncc(Cl)c(Nc3ccccc3P(C)(C)=O)n2)cc(OC)c1N1CCC(N2CCN(CCC#Cc3cccc4c3CN(C3CCC(=O)NC3=O)C4=O)CC2)CC1 (centres unmarked) [Example E93]	68.6	827	75.4	15	9.74
COc1cc(N2CCC(N3CCN(CCCCOc4cccc5c4CN(C4CCC(=O)NC4=O)C5=O)CC3)CC2)c(CC#N)cc1Nc1ncc(Cl)c(Nc2ccccc2P(C)(C)=O)n1 (centres unmarked) [Example E179]	44.6	1160	153	1.3	5.94
CCc1cc(Nc2ncc(Cl)c(Nc3ccccc3P(C)(C)=O)n2)c(OC)cc1N1CCC(N2CCN(CC(C)(C)Oc3cccc4c3CN(C3CCC(=O)NC3=O)C4=O)CC2)CC1 (centres unmarked) [Example E157]	103	3170	3780	33.7	11.2
COc1cc(N2CCC(N3CCN(CCC#Cc4cccc5c4CN(C4CCC(=O)NC4=O)C5=O)CC3)CC2)c(C(N)=O)cc1Nc1ncc(Cl)c(Nc2ccccc2P(C)(C)=O)n1 (centres unmarked) [Example E61]	621	> 4000	> 4000	37.8	280
CCc1cc(Nc2ncc(Cl)c(Nc3ccccc3P(C)(C)=O)n2)c(OC)cc1N1CCC(N2CCN(C(=O)CNc3cccc4c3C(=O)N(C3CCC(=O)NC3=O)C4=O)CC2)CC1 (centres unmarked) [Example E112]	85.4	1370	> 4000	10.7	18.4
CCc1cc(Nc2ncc(Cl)c(Nc3ccccc3P(C)(C)=O)n2)c(OC)cc1N1CCC(N2CCN(CCOc3cccc4c3CN(C3CCC(=O)NC3=O)C4=O)CC2=O)CC1 (centres unmarked) [Example E118]	112	1340	> 4000	6.3	–
CCc1cc(Nc2ncc(Cl)c(Nc3ccccc3P(C)(C)=O)n2)c(OC)cc1N1CCC(N2CCN(C(=O)COc3cccc4c3CN(C3CCC(=O)NC3=O)C4=O)CC2)CC1 (centres unmarked) [Example E82]	162	1780	781	–	17
CCc1cc(Nc2ncc(Cl)c(Nc3ccccc3P(C)(C)=O)n2)c(OC)cc1N1CCC(N2CCN([C@H]3C[C@H](Oc4ccc5c(c4)CN(C4CCC(=O)NC4=O)C5=O)C3)CC2)CC1 (some centres unmarked) [Example E191]	69.2	1150	947	3.1	–
CCc1cc(N2CCC(N3CCN(CCCCOc4cccc5c4CN(C4CCC(=O)NC4=O)C5=O)CC3)CC2)c(CC)cc1Nc1nc(Nc2ccccc2P(C)(C)=O)c2cc[nH]c2n1 (centres unmarked) [Example E153]	65.9	> 4000	> 4000	26.3	–
CCc1cc(Nc2ncc(Cl)c(Nc3ccccc3P(C)(C)=O)n2)c(OC)cc1N1CCC(N2CCC3(CC(Oc4ccc5c(c4)CN(C4CCC(=O)NC4=O)C5=O)C3)C2)CC1 (centres unmarked) [Example E187]	50.3	1460	815	19.5	–
CCc1cc(Nc2ncc(Cl)c(Nc3ccccc3P(C)(C)=O)n2)cc(C#N)c1N1CCC(N2CCN(CCC#Cc3cccc4c3CN(C3CCC(=O)NC3=O)C4=O)CC2)CC1 (centres unmarked) [Example E94]	57	524	50.6	40.2	–
CCc1cc(Nc2ncc(-n3cnc(C)n3)c(Nc3ccccc3P(C)(C)=O)n2)c(OC)cc1N1CCC(N2CCN(CCOc3ccc4c(c3)CN(C3CCC(=O)NC3=O)C4=O)CC2)CC1 (centres unmarked) [Example E218]	> 4000	> 4000	2090	1	–
CCCc1cc(Nc2ncc(Cl)c(Nc3ccccc3P(C)(C)=O)n2)c(OC)cc1N1CCC(N2CCN(CCC#Cc3cccc4c3CN(C3CCC(=O)NC3=O)C4=O)CC2)CC1 (centres unmarked) [Example E44]	17.9	3490	> 4000	6.6	–
